Each structure is given as a SMILES string. Where a name gives a salt, the structure may show the parent alone.

By melting point is commonly meant the temperature of the solid-liquid transition.

As for `CC[C@H](NC(=O)c1c(CN2CCN(S(=O)(=O)N(C)C)CC2)c(-c2ccccc2)nc2ccccc12)c1ccccc1` [Example 91, 3-(4-Dimethylsulfamoyl-piperazin-1-ylmethyl)-2-phenyl-quinoline-4-carboxylic acid ((S)-1-phenyl-propyl)-amide], the melting point is 107 to 111 °C (dec.).
The figure for `C[C@H](NC(=O)c1c(CN2CCC3(CC2)OCCO3)c(-c2ccccc2)nc2ccccc12)C1CCCCC1` [Example 61, 3-(1,4-Dioxa-8-aza-spiro[4.5]dec-8-ylmethyl)-2-phenyl-quinoline-4-carboxylic acid ((S)-1-cyclohexyl-ethyl)-amide] is 184 to 185 °C; for `CC[C@H](NC(=O)c1c(CN2CCC(n3c(=O)[nH]c4ccccc43)CC2)c(-c2ccccc2)nc2ccccc12)c1ccccc1` it is 195 to 197 °C; for `C[C@H](NC(=O)c1c(CN2CCN(c3ccccn3)CC2)c(-c2ccccc2)nc2ccccc12)C1CCCCC1` [Example 59, 2-Phenyl-3-(4-pyridin-2-yl-piperazin-1-ylmethyl)-quinoline-4-carboxylic acid ((S)-1-cyclohexyl-ethyl)-amide] it is 152 to 154 °C.
The figure for `C[C@H](NC(=O)c1c(CN2CCN(c3c(N4CCCC4)c(=O)c3=O)CC2)c(-c2ccccc2)nc2ccccc12)C1CCCCC1` [Example 72, 3-[4-(3,4-Dioxo-2-pyrrolidin-1-yl-cyclobut-1-enyl)-piperazin-1-ylmethyl]-2-phenyl-quinoline-4-carboxylic acid ((S)-1-cyclohexyl-ethyl)-amide] is 170 to 180 °C; for `C[C@H](NC(=O)c1c(CN2CCN(C3=NCCS3)CC2)c(-c2ccccc2)nc2ccccc12)C1CCCCC1` [Example 74, 3-[4-(4,5-Dihydro-thiazol-2-yl)-piperazin-1-ylmethyl]-2-phenyl-quinoline-4-carboxylic acid ((S)-1-cyclohexyl-ethyl)-amide] it is 174 to 176 °C.
For `C[C@H](NC(=O)c1c(CN2CCC(n3c(=O)[nH]c4ccccc43)CC2)c(-c2ccccc2)nc2ccccc12)C1CCCCC1` the value was 204 to 206 °C.
As for `CC[C@H](NC(=O)c1c(CN2CCC(c3ccccc3)CC2)c(-c2ccccc2)nc2ccccc12)c1ccccc1` [Example 2, 2-Phenyl-3-(4-phenyl-piperidin-1-ylmethyl)-quinoline-4-carboxylic acid ((S)-1-phenyl-propyl)-amide], the melting point lay in the range of 90 to 95 °C.
The figure for `CC(C)C(=O)N1CCN(Cc2c(-c3ccccc3)nc3ccccc3c2C(=O)N[C@@H](C)C2CCCCC2)CC1` [Example 25, 3-[4-(2-Methyl-propanoyl)-piperazin-1-ylmethyl]-2-phenyl-quinoline-4-carboxylic acid ((S)-1-cyclohexyl-ethyl)-amide] is 149 to 151 °C; for `CC[C@H](NC(=O)c1c(CN2CCN(C(=O)c3ccccc3)CC2)c(-c2ccccc2)nc2ccccc12)c1ccccc1` [Example 31, 2-Phenyl-3-[4-(1-phenyl-methanoyl)-piperazin-1-ylmethyl]-quinoline-4-carboxylic acid ((S)-1-phenyl-propyl)-amide] it is 180 to 182 °C.
The compound `C[C@H](NC(=O)c1c(CN2CCC(N3CCC(O)CC3)CC2)c(-c2ccccc2)nc2ccccc12)C1CCCCC1` [Example 43, 3-(4-Hydroxy-[1,4′]bipiperidinyl-1′-ylmethyl)-2-phenyl-quinoline-4-carboxylic acid ((S)-1-cyclohexyl-ethyl)-amide] came in with a melting point of 150 to 160 °C.
For `C[C@H](NC(=O)c1c(CN2CCN(C(=O)CCC(=O)O)CC2)c(-c2ccccc2)nc2ccccc12)C1CCCCC1` [Example 83, 4-{4-[4-((S)-1-Cyclohexyl-ethylcarbamoyl)-2-phenyl-quinolin-3-ylmethyl]-piperazin-1-yl}-4-oxo-butyric acid], the melting point lay in the range of 208 to 209 °C.
The figure for `CC[C@H](NC(=O)c1c(CN2CCC(N3CCNC3=O)CC2)c(-c2ccccc2)nc2ccccc12)c1ccccc1` [Example 77, 3-[4-(2-Oxo-imidazolidin-1-yl)-piperidin-1-ylmethyl]-2-phenyl-quinoline-4-carboxylic acid ((S)-1-phenyl-propyl)-amide] is 240 to 242 °C.
In turn, `C[C@H](NC(=O)c1c(CN2CCN(C(=O)CN3CCN(C)CC3)CC2)c(-c2ccccc2)nc2ccccc12)C1CCCCC1` [Example 48, 3-{4-[2-(4-Methyl-piperazin-1-yl)-ethanoyl]-piperazin-1-ylmethyl}-2-phenyl-quinoline-4-carboxylic acid ((S)-1-cyclohexyl-ethyl)-amide] displayed a melting point of 162 to 163 °C.
In turn, `COCCN1CCN(Cc2c(-c3ccccc3)nc3ccccc3c2C(=O)N[C@@H](C)C2CCCCC2)CC1` [Example 17, 3-[4-(2-Methoxy-ethyl)-piperazin-1-ylmethyl]-2-phenyl-quinoline-4-carboxylic acid ((S)-1-cyclohexyl-ethyl)-amide] displayed a melting point of 113 to 115 °C.
For `CC[C@H](NC(=O)c1c(CN2CCC(N3CCCCC3)CC2)c(-c2ccccc2)nc2c(Cl)c(O)ccc12)c1ccccc1` [Example 89, 3-[1,4′]Bipiperidinyl-1′-ylmethyl-8-chloro-7-hydroxy-2-phenyl-quinoline-4-carboxylic acid ((S)-1-phenyl-propyl)-amide] the value was 209 to 216 °C (dec.); for `CC[C@H](NC(=O)c1c(CN2CCC(N3CCCCC3)CC2)c(-c2ccccc2)nc2ccccc12)c1ccccc1` (as salt: HCl) [Example 14, 3-[1,4′]Bipiperidinyl-1′-ylmethyl-2-phenyl-quinoline-4-carboxylic acid ((S)-1-phenyl-propyl)-amide], 182 to 185 °C.
`CC(C)[C@H](NC(=O)c1c(CN2CCN(C(=O)c3ccccc3C(=O)O)CC2)c(-c2ccccc2)nc2ccccc12)c1ccccc1` [Example 86, 2-(1-{4-[4-((S)-2-Methyl-1-phenyl-propylcarbamoyl)-2-phenyl-quinolin-3-ylmethyl]-piperazin-1-yl}-methanoyl)-benzoic acid] had a melting point of 189 to 191 °C.
The compound `C[C@H](NC(=O)c1c(CN2CCC(N3CCCCC3)CC2)c(-c2ccccc2)nc2ccccc12)c1ccccc1` (as salt: HCl) [Example 30, 3-[1,4′]Bipiperidinyl-1′-ylmethyl-2-phenyl-quinoline-4-carboxylic acid ((S)-1-phenyl-ethyl)-amide] gave a melting point of 208 to 210 °C.
Compound `CC[C@H](NC(=O)c1c(CN2CCC(N)CC2)c(-c2ccccc2)nc2ccccc12)c1ccccc1` [Example 55, 3-(4-Amino-piperidin-1-ylmethyl)-2-phenyl-quinoline-4-carboxylic acid ((S)-1-phenyl-propyl)-amide] gave a melting point of 98 to 102 °C.
Take `C[C@H](NC(=O)c1c(CN2CCN(CCOCCO)CC2)c(-c2ccccc2)nc2ccccc12)C1CCCCC1` [Example 20, 3-{4-[2-(2-Hydroxy-ethoxy)-ethyl]-piperazin-1-ylmethyl}-2-phenyl-quinoline-4-carboxylic acid ((S)-1-cyclohexyl-ethyl)-amide]: the melting point lay within 126 to 128 °C.
Take `CC[C@H](NC(=O)c1c(CN2CCN(C(C)=O)CC2)c(-c2ccccc2)nc2ccccc12)c1ccccc1` [Example 23, 3-(4-Acetyl-piperazin-1-ylmethyl)-2-phenyl-quinoline-4-carboxylic acid ((S)-1-phenyl-propyl)-amide]: the melting point was 117 to 119 °C.
For `CC[C@H](NC(=O)c1c(CN2C[C@@H](C)N[C@@H](C)C2)c(-c2ccccc2)nc2ccccc12)c1ccccc1` [Example 60, 3-((3R,5S)-3,5-Dimethyl-piperazin-1-ylmethyl)-2-phenyl-quinoline-4-carboxylic acid ((S)-1-phenyl-propyl)-amide] the value was 114 to 120 °C; for `C[C@H](NC(=O)c1c(CN2CCC(C(N)=O)CC2)c(-c2ccccc2)nc2ccccc12)C1CCCCC1` [Example 36, 3-(4-Carbamoyl-piperidin-1-ylmethyl)-2-phenyl-quinoline-4-carboxylic acid ((S)-1-cyclohexyl-ethyl)-amide], 219 to 221 °C; for `COc1ccc2c(C(=O)N[C@@H](C)C3CCCCC3)c(CN3CCC(N4CCCCC4)CC3)c(-c3ccccc3)nc2c1` [Example 88, 3-[1,4′]Bipiperidinyl-1′-ylmethyl-7-methoxy-2-phenyl--quinoline-4-carboxylic acid ((S)-1-cyclohexyl-ethyl)-amide], 139 to 144 °C (dec.).
`C[C@H](NC(=O)c1c(CN2CCN(C(=O)CN(C)C)CC2)c(-c2ccccc2)nc2ccccc12)C1CCCCC1` [Example 46, 3-[4-(2-Dimethylamino-ethanoyl)-piperazin-1-ylmethyl]-2-phenyl-quinoline-4-carboxylic acid ((S)-1-cyclohexyl-ethyl)-amide] came in with a melting point of 173 to 175 °C.
The figure for `CC[C@H](NC(=O)c1c(CN2CCC(N3CCN(C)CC3)CC2)c(-c2ccccc2)nc2ccccc12)c1ccccc1` [Example 62, 3-[4-(4-Methyl-piperazin-1-yl)-piperidin-1-ylmethyl]-2-phenyl-quinoline-4-carboxylic acid ((S)-1-phenyl-propyl)-amide] is 85 to 100 °C; for `CNC(=NC#N)N1CCN(Cc2c(-c3ccccc3)nc3ccccc3c2C(=O)N[C@@H](C)C2CCCCC2)CC1` [Example 73, 3-[4-(-1-Cyanoimino-1-methylamino-methyl)-piperazin-1-ylmethyl]-2-phenyl-quinoline-4-carboxylic acid ((S)-1-cyclohexyl-ethyl)amide] it is 175 to 180 °C.
Regarding `CC[C@H](NC(=O)c1c(CN2CCN(S(N)(=O)=O)CC2)c(-c2ccccc2)nc2ccccc12)c1ccccc1` [Example 90, 2-Phenyl-3-(4-sulfamoyl-piperazin-1-ylmethyl)-quinoline-4-carboxylic acid ((S)-1-phenyl-propyl)-amide], the melting point was 133 °C (dec.).
Take `C[C@H](NC(=O)c1c(CN2CCN(C(=C[N+](=O)[O-])N3CCCC3)CC2)c(-c2ccccc2)nc2ccccc12)C1CCCCC1` [Example 81, 3-[4-(2-Nitro-1-pyrrolidin-1-yl-vinyl)-piperazin-1-ylmethyl]-2-phenyl-quinoline-4-carboxylic acid ((S)-1-cyclohexyl-ethyl)-amide]: the melting point lay within 164 to 165 °C.

The values above are taken from patent publication US6780875B2, “Quinoline-4-carboxamide derivatives as NK-3 and NK-2 receptor antagonists” (SmithKline Beecham S.p.A., priority 1998, dated 2004).
